Laboratory results taken from patent US20260182569A1, “SMART BIOSTIMULANT DELIVERY FOR PLANT GROWTH AND DEVELOPMENT” (King Abdullah University of Science and Technology, priority 2022, published 2026).

What was measured:
[1] = Thermal stability in amino acid media, PBS and HEPES, 45° C. for 24 hours (UV-vis); format: physicochemical; details: amino acid and buffer (PBS, HEPES) solutions
Text: Organic matter is combined with more than 90% of the nitrogen sources present in the soil, with 20%-40% of this ratio in amino form. The amino acid (AA) composition of soil organic matter depends on several factors, for instance, pH, plant interaction with other microorganisms, environmental factors (e.g., temperature and CO2 levels), and chemical and nutrient composition. Thus, considering the complexity of using soil as substrates for plants as well as the mechanisms that these undergo during their growth stages, it is important to develop more resistant materials that remain stable under certain conditions. To test the stability of ZIF-8@MiZax-3, it was dissolved in a series of AA media and incubated it at 45° C. for 24 hours. Additionally, PBS and HEPES solutions were utilized to assess the thermal stability in biological and physiological conditions.
A set of samples were prepared as follows: Aspartic acid (5 mM), Glutamine (5 mM), Histidine (5 mM), PBS (1×), Asparagine (5 mM), Glutamic acid (5 mM), Alanine (5 mM), HEPES (10 mM), Mixture of amino acids (5 mM) all in 5 mL of PBS and 1 drop of ethanol. Subsequently, the samples were vortexed for 10 seconds and incubated at 45° C. for 24 hours. […]
A decrease in intensity around 283 nm wavelength and remarkable shifts in the absorbance maxima of MiZax-3 were readily observed after the incubation period. […]

3T3 cells = test: Cytotoxicity analysis, live-dead viability and CCK-8 assays; format: cell-based; details: viability after 24 hours
Text: FIG. 10A illustrates a cytotoxicity analysis of precursor molecules, including Zn(NO3)2, 2-MIm, and MiZax-3, according to some embodiments. FIG. 10B illustrates a cytotoxicity analysis of ZIF-8 and ZIF-8@MiZax-3 complexes, according to some embodiments. Assessing the safety of this synthetic platform is critical. Accordingly, it is important to check if any of the materials or degraded building blocks are transferred from the rhizosphere to the actual fruit. For cytotoxicity analysis, live-dead viability and cell counting kit-8 (CCK-8) assays were performed according to the manufacturer's protocol. Briefly, 3T3 cells (1×10^4 cells per well) were seeded onto a 96-well plate. After 24 hours, cells were incubated with different concentrations (0.1, 0.5, 1, 5, 10, and 50 μg/mL) of ZIF-8 and ZIF-8 loaded with MiZax-3. In addition, to evaluate the cytotoxicity of the particles after degradation at low pH, 3T3 cells were incubated with Zn(NO3)2 and 2-MIm at concentrations of (0.01, 0.05, 0.1, 0.5, 1, 5, 10, and 50 μg/mL) and with MiZax-3 at (0.01, 0.05, 0.1, 0.5, 1, 5, 10, and 50 ng/mL). The cell viability was measured after 24 hours.

pepper fruits = test: LC-MS analysis of pepper fruits from field trial for MiZax-3; format: in vivo
[2] = test system: Capsicum (C. annuum L. var. California Wonder); test: Capsicum field trial, growth and yield; format: in vivo
Protocol: FIG. 10C illustrates a schematic representation of the final product utilized for soil treatment, according to some embodiments. The final products included ZIF-8, MiZax-3, and ZIF-8@MiZax-3. These products were added to the sand/soil for the field experiment. FIG. 10D illustrates pictures of a field experiment utilizing ZIF-8@MiZax-3, according to some embodiments. Capsicum (C. annuum L. var. California Wonder) seedlings used for the field trial were initially germinated in soil and grown until the 4-week-old stage in a greenhouse under a semi-controlled environment adjusted to 28° C. (day)/26° C. (night) temperature, under 12 hours-light photoperiod with 60% humidity for nursery. During the nursery period, seedlings were given Hoagland solution to boost their growth before transferring to the field. The uniformly selected seedlings were transferred to the field during the winter season. The field used for the capsicum trial for testing ZIF-8, MiZax-3, and ZIF-8@MiZax-3 was divided into plots and treatments were allocated by following randomized complete block design (RCBD) with three replications as previously described. Each plot size was around 2 m×1.2 m with a planting distance of 50 cm×60 cm (8 plants/plot). After a week of acclimation, the first soil treatments were completed by mixing ZIF-8 (˜33.3 mg/L soil), MiZax-3 (˜1.38 mg/L soil), and ZIF-8@MiZax-3 (˜33.3 mg/L soil) directly on top of each plant stem on the soil surface. The treatments were repeated twice with a month gap in between. Plants were watered with a drip irrigation system twice a day, with an average of half a liter of water per individual. Plant phenotyping data were collected until 13 weeks after transplanting (13WAT) stage to the field. FIG. 11B illustrates a graph of the number of buds per individual at 4WAT, according to some embodiments. […] Two consecutive harvests were completed to compare the total fresh fruit yield harvested per total number of plants (n=24) between treatments and mock. The ZIF-8, MiZax-3 and ZIF-8@MiZax-3 treatments enhanced the total yield by 26.37%, 31.76% and 35.11%, respectively. […] In addition, zinc fertilizers can alter the microbial communities in the rhizosphere, which promotes plant growth and eventually increases yield.

[3] = fresh fruit, total number of plants n=24

Structure (SMILES): COc1ccc(Oc2cccc(/C=C/C(C)=O)c2)cc1 [MiZax-3, (E)-4-(3-(4-methoxyphenoxy)phenyl) but-3-en-2-one]
- Shift of UV-vis absorption after thermal incubation [1]: significant wavelength shifts up to 332 nm
- Concentration up to which high biocompatibility was exhibited (3T3 cells): up to 50 ng/ml
- MiZax-3 in pepper fruits of treated plants (pepper fruits): no detectible MiZax-3
- Number of flower buds per individual ([2]; 4WAT): significantly higher number of flower buds compared to the mock and ZIF-8 treated seedlings
- Plant height ([2]; 4WAT): significantly taller than mock and ZIF-8 treated plants
- Average dry shoot biomass per individual plant ([2]; 13WAT, compared to mock, no statistically significant difference): upwards trend
- Plant health (appearance) ([2]; 13WAT, versus mock): healthier than the mock plants
- Average Total Fruit Number ([2]; capsicum field trial, soil treatment): 53.17
- Harvest-1 [2, 3]: 4464.8 g
- Harvest-2 [2, 3]: 5423.8 g
- Yield Enhancement ([2]; total yield versus mock): 31.76%
- Total Yield ([2]; two harvests, total number of plants n=24): 9888.6 g
